Laboratory results reported in US10538521B2, “Pyrimidine derivative having antimalarial activity” (CARNA BIOSCIENCES, INC., priority 2016, dated 2020).
Read-outs that look alike come from different tables or passages of the source.

What was measured:
[1] = test system: P. berghei N strain (drug sensitive strain); assay: In vivo antimalarial assay, mouse model infected with rodent malaria; conditions: Plasmodium berghei, ip, 96 h, parasitaemia on day 4, ICR mice, read-out: Therapeutical Effect (%) inhibition; for inhibition in vivo at 10 mg/kg: 10 mg/kg i.p.; for inhibition in vivo at 3 mg/kg: 3 mg/kg i.p.
Method: In vivo antimalarial activity of the compound of the present invention was determined using a mouse model infected with rodent malaria P. berghei N strain (drug sensitive strain) by slightly modifying the method described in the above publication of Otoguro et al. (2001) and the method reported by Peters et al. (Peters, W., Portus, J. H. and Robinson, B. L.: The chemotherapy of rodent malaria. XXII. The value of drug-resistant strains of P. berghei in Screening for blood schizonticidal activity. Ann. Trop. Med. Parasitol., 69: 155-171, (1975)). The P. berghei N strain was generous gift from Dr. W. Peters (Northwick Park Institute for Medical Research, Middlesex, United Kingdom).
A group of three ICR male mice (Charles River Laboratories Japan, Inc.) weighing 18 to 20 g was used as a test animal. Using protozoa maintained and sub-cultured by in vivo passage, 2×10^6 parasite-infected erythrocytes were pre pared, and the mice were infected therewith by tail vein injection. For the therapeutic test, a 1-day suppressive test was performed. The day of infection was defined as day 0. Two hours after the infection, a solution of the test compound (solvent: 3% DMSO/0.5% methylcellulose400-solution or suspension) was administered intraperitoneally (i.p.) once to 3 times. On day 4, blood smear preparation was prepared by collecting from the tail vein and the ratio of parasite-infected erythrocytes (parasitaemia) was investigated to determine the therapeutic effect (inhibition percentage) based on the infection rate of the group to which the compound was not administered. The significance test was performed by Dunnett's test.

[2] = test system: K1 strain, a drug resistant strain of Plasmodium falciparum; assay: In vitro antimalarial assay (p-LDH, Malstat), K1 strain; type: cell-based; conditions: P. falciparum K1 (drug resistant), 72 h culture, p-LDH readout, read-out: Antimalarial activity (IC50 value), Strain K1
Procedure, shortened: (§1)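 IC50 derived from concentration-response of parasite lactate dehydrogenase signal (Malstat reagent, NBT/PES formazan at 655 nm) after freeze-thaw lysis. Infected erythrocytes (hematocrit 2%, parasitaemia 0.5 or 1%) exposed 72 h to 12.5–0.0001 μM final compound under 3% O2-4% CO2-93% N2, FCR3 and K1 alike.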

[3] = test system: FCR3 strain, a drug sensitive strain of Plasmodium falciparum; assay: In vitro antimalarial assay (p-LDH, Malstat), FCR3 strain; type: cell-based; conditions: P. falciparum FCR3 (drug sensitive), 72 h culture, p-LDH readout, read-out: Antimalarial activity (IC50 value), Strain FCR3
Procedure, shortened: as §1

Cc1cccc(Nc2nc(Nc3ccn4ccnc4c3)cc(N3CCCCC3)n2)n1 [Example 28, N4-(imidazo[1,2-a]pyridin-7-yl)-N2-(6-methylpyridin-2-yl)-6-(piperidin-1-yl)pyrimidine-2,4-diamine]
inhibition in vivo at 10 mg/kg ([1]; administered once): 51.4% | IC50 [2]: < 100 nM | IC50 [3]: < 100 nM

Cc1cc(C)nc(Nc2nc(Nc3ccn4ccnc4c3)cc(N3CCCCC3)n2)c1 [Example 32, N2-(4,6-dimethylpyridin-2-yl)-N4-(imidazo[1,2-a]pyridin-7-yl)-6-(piperidin-1-yl)pyrimidine-2,4-diamine]
inhibition in vivo at 10 mg/kg ([1]; administered once): 47.5% | IC50 [2]: < 100 nM | IC50 [3]: < 100 nM

Cc1ccnc(Nc2nc(Nc3ccn4ccnc4c3)cc(N3CCCCC3)n2)c1 [Example 34, N4-(imidazo[1,2-a]pyridin-7-yl)-N2-(4-methylpyridin-2-yl)-6-(piperidin-1-yl)pyrimidine-2,4-diamine]
inhibition in vivo at 10 mg/kg ([1]; administered once): 51.5% | IC50 [2]: < 100 nM | IC50 [3]: 100 to 1000 nM

CCc1ccnc(Nc2nc(Nc3ccn4ccnc4c3)cc(N3CCOCC3)n2)c1 [Example 68, N2-(4-ethylpyridin-2-yl)-N4-(imidazo [1,2-a]pyridin-7-yl)-6-morpholinopyrimidine-2,4-diamine]
inhibition in vivo at 10 mg/kg ([1]; administered once): 41.7% | IC50 [2]: < 100 nM | IC50 [3]: < 100 nM

COc1ccnc(Nc2nc(Nc3ccn4ccnc4c3)cc(N3CCCCC3)n2)c1 [Example 93, N4-(imidazo[1,2-a]pyridin-7-yl)-N2-(4-methoxypyridin-2-yl)-6-(piperidin-1-yl)pyrimidine-2,4-diamine]
inhibition in vivo at 3 mg/kg ([1]; administered twice (day 0 and 1)): 64.2% | IC50 [2]: < 100 nM | IC50 [3]: < 100 nM

CCc1ccnc(Nc2nc(Nc3ccn4ccnc4c3)cc(N3CCCC3)n2)c1 [Example 94, N2-(4-ethylpyridin-2-yl)-N4-(imidazo[1,2-a]pyridin-7-yl)-6-(pyrrolidin-1-yl)pyrimidine-2,4-diamine]
inhibition in vivo at 3 mg/kg ([1]; administered once): 42.9% | IC50 [2]: < 100 nM | IC50 [3]: < 100 nM

CCc1cc(C)cc(Nc2nc(Nc3ccn4ccnc4c3)cc(N3CCCCC3)n2)n1 [Example 189, N2-(6-ethyl-4-methylpyridin-2-yl)-N4-(imidazo[1,2-a]pyridin-7-yl)-6-(piperidin-1-yl)pyrimidine-2,4-diamine]
IC50 [2]: < 100 nM | IC50 [3]: < 100 nM

COc1cc(C)nc(Nc2nc(Nc3ccn4ccnc4c3)cc(N3CCCCC3)n2)c1 [Example 190, N4-(imidazo[1,2-a]pyridin-7-yl)-N2-(4-methoxy-6-methylpyridin-2-yl)-6-(piperidin-1-yl) pyrimidine-2,4-diamine]
IC50 [2]: < 100 nM | IC50 [3]: < 100 nM

COc1cc(CF)nc(Nc2nc(Nc3ccn4ccnc4c3)cc(N3CCCCC3)n2)c1 [Example 191, N2-(6-(fluoromethyl)-4-methoxypyridin-2-yl)-N4-(imidazo [1,2-a]pyridin-7-yl)-6-(piperidin-1-yl)pyrimidine-2,4-diamine]
IC50 [2]: 100 to 1000 nM | IC50 [3]: 100 to 1000 nM

OCc1cccc(Nc2nc(Nc3ccn4ccnc4c3)cc(N3CCCCC3)n2)n1 [Example 192, (6-{[4-(imidazo[1,2-a]pyridin-7-ylamino)-6-(piperidin-1-yl)pyrimidin-2-yl]amino}pyridin-2-yl)methanol]
IC50 [2]: 1000 to 10000 nM | IC50 [3]: 100 to 1000 nM

Cc1cc(C)nc(Nc2nc(Nc3ccn4ccnc4c3)cc(N3C[C@@H]4OCCO[C@@H]4C3)n2)c1 [Example 194, N2-(4,6-dimethylpyridin-2-yl)-N4-(imidazo[1,2-a]pyridin-7-yl)-6-[(4aR,7aS)-tetrahydro-2H-[1,4]dioxino[2,3-c]pyrrol-6(3H)-yl]pyrimidine-2,4-diamine]
IC50 [2]: < 100 nM | IC50 [3]: < 100 nM

Cc1cc(C)nc(Nc2nc(Nc3ccccc3)cc(Nc3ccn4ccnc4c3)n2)c1 [Example 195, N2-(4,6-dimethylpyridin-2-yl)-N4-(imidazo[1,2-a]pyridin-7-yl)-N6-phenylpyrimidine-2,4,6-triamine]
IC50 [2]: 100 to 1000 nM | IC50 [3]: 100 to 1000 nM

Cc1cc(C)nc(Nc2nc(NCc3ccccc3)cc(Nc3ccn4ccnc4c3)n2)c1 [Example 196, N4-benzyl-N2-(4,6-dimethylpyridin-2-yl)-N6-(imidazo[1,2-a]pyridin-7-yl)pyrimidine-2,4,6-triamine]
IC50 [2]: < 100 nM | IC50 [3]: < 100 nM

CCCCc1cc(OC)cc(Nc2nc(Nc3ccn4ccnc4c3)cc(N3CCCCC3)n2)n1 [Example 197, N2-(6-butyl-4-methoxypyridin-2-yl)-N4-(imidazo[1,2-a]pyridin-7-yl)-6-(piperidin-1-yl) pyrimidine-2,4-diamine]
IC50 [2]: 100 to 1000 nM | IC50 [3]: 100 to 1000 nM

Cc1cc(C)nc(Nc2nc(Nc3ccn4ccnc4c3)cc(NN3CCCCC3)n2)c1 [Example 198, N2-(4,6-dimethylpyridin-2-yl)-N4-(imidazo[1,2-a]pyridin-7-yl)-N6-(piperidin-1-yl)pyrimidine-2,4,6-triamine]
IC50 [2]: 100 to 1000 nM | IC50 [3]: < 100 nM

Cc1cc(C)nc(Nc2nc(Nc3ccn4ccnc4c3)cc(NN3CCOCC3)n2)c1 [Example 199, N2-(4,6-dimethylpyridin-2-yl)-N4-(imidazo[1,2-a]pyridin-7-yl)-N6-morpholinopyrimidine-2,4,6-triamine]
IC50 [2]: < 100 nM | IC50 [3]: < 100 nM

Cc1cc(C)nc(Nc2nc(Nc3ccn4ccnc4c3)cc(Nn3cccc3)n2)c1 [Example 200, N2-(4,6-dimethylpyridin-2-yl)-N4-(imidazo[1,2-a]pyridin-7-yl)-N6-(1H-pyrrol-1-yl)pyrimidine-2,4,6-triamine]
IC50 [2]: 100 to 1000 nM | IC50 [3]: 100 to 1000 nM

CCCCc1cc(CC)cc(Nc2nc(Nc3ccn4ccnc4c3)cc(N3CCCCC3)n2)n1 [Example 201, N2-(6-butyl-4-ethylpyridin-2-yl)-N4-(imidazo[1,2-a]pyridin-7-yl)-6-(piperidin-1-yl) pyrimidine-2,4-diamine]
IC50 [2]: 100 to 1000 nM | IC50 [3]: 100 to 1000 nM

Cc1nc(Nc2nc(Nc3ccn4ccnc4c3)cc(N3CCCCC3)n2)ccc1F [Example 202, N2-(5-fluoro-6-methylpyridin-2-yl)-N4-(imidazo[1,2-a]pyridin-7-yl)-6-(piperidin-1-yl) pyrimidine-2,4-diamine]
IC50 [2]: 100 to 1000 nM | IC50 [3]: 100 to 1000 nM

Cc1nc(Nc2nc(Nc3ccn4ccnc4c3)cc(N3CCCCC3)n2)ccc1Cl [Example 203, N2-(5-chloro-6-methylpyridin-2-yl)-N4-(imidazo[1,2-a]pyridin-7-yl)-6-(piperidin-1-yl) pyrimidine-2,4-diamine]
IC50 [2]: 100 to 1000 nM | IC50 [3]: 100 to 1000 nM

Cc1cc(Nc2nc(Nc3ccn4ccnc4c3)cc(N3CCCCC3)n2)ncc1F [Example 204, N2-(5-fluoro-4-methylpyridin-2-yl)-N4-(imidazo[1,2-a]pyridin-7-yl)-6-(piperidin-1-yl) pyrimidine-2,4-diamine]
IC50 [2]: 100 to 1000 nM | IC50 [3]: 100 to 1000 nM

Cc1cc(Cl)cc(Nc2nc(Nc3ccn4ccnc4c3)cc(N3CCCCC3)n2)n1 [Example 205, N2-(4-chloro-6-methylpyridin-2-yl)-N4-(imidazo[1,2-a]pyridin-7-yl)-6-(piperidin-1-yl) pyrimidine-2,4-diamine]
IC50 [2]: 100 to 1000 nM | IC50 [3]: 100 to 1000 nM

Cc1cc(C)nc(Nc2nc(Nc3ccn4ccnc4c3)cc(NN3CCCC3)n2)c1 [Example 206, N2-(4,6-dimethylpyridin-2-yl)-N4-(imidazo[1,2-a]pyridin-7-yl)-N6-(pyrrolidin-1-yl)pyrimidine-2,4,6-triamine]
IC50 [2]: < 100 nM | IC50 [3]: < 100 nM

COc1ccnc(Nc2nc(Nc3ccn4ccnc4c3)cc(N3CCC4(CCCC4)C3)n2)c1 [Example 207, N4-(imidazo[1,2-a]pyridin-7-yl)-N2-(4-methoxypyridin-2-yl)-6-(2-azaspiro[4.4]nonan-2-yl) pyrimidine-2,4-diamine]
IC50 [2]: 100 to 1000 nM | IC50 [3]: 100 to 1000 nM

CCc1ccnc(Nc2nc(Nc3ccn4ccnc4c3)cc(N3CCC4(CCCC4)C3)n2)c1 [Example 208, N2-(4-ethylpyridin-2-yl)-N4-(imidazo[1,2-a]pyridin-7-yl)-6-(2-azaspiro[4.4]nonan-2-yl) pyrimidine-2,4-diamine]
IC50 [2]: 100 to 1000 nM | IC50 [3]: 100 to 1000 nM

COc1ccnc(Nc2nc(Nc3ccn4ccnc4c3)cc(N3CCC(C)(C)C3)n2)c1 [Example 209, 6-(3,3-dimethylpyrrolidin-1-yl)-N4-(imidazo[1,2-a]pyridin-7-yl)-N2-(4-methoxypyridin-2-yl) pyrimidine-2,4-diamine]
IC50 [2]: 100 to 1000 nM | IC50 [3]: 100 to 1000 nM
